This data set can be described thus: wn = mass fraction of the nth substance listed. As to conditions: 348 K, 101 kPa, Liquid, Pycnometric method.

Numbers after ± are expanded uncertainties.

One may read the mass density as mass per unit of volume. `[Br-].[Br-].[Ca+2]` [calcium bromide] + O: the mass density (w1 = 0.7426) is listed as 2062.6 ± 3.5 kg/m3.
On to `[Br-].[Br-].[Mg+2]` [magnesium bromide (MgBr2)] + O, for which the mass density (w1 = 0.5348) is on record as 1674.1 ± 1.8 kg/m3.

The values are drawn from the NIST ThermoML archive (doi:10.1021/acs.jced.5b00112).
